# Source: patent US11397184B2, “Selection of patients for combination therapy” (Syndax Pharmaceuticals, Inc., priority 2015, dated 2022)
# Like-named read-outs stand apart in the source and are kept apart here.
# Legend:
# [1] = test system: CD14+ monocytes in PBMCs of breast cancer patients; experiment: ENCORE 301 blood samples: flow cytometry of circulating monocyte populations, baseline vs C1D15; type: in vivo, human
# Description: (A) Gating strategy for analysis of CD14^+ monocytes (left panel), CD14^+HLA-DR^hi monocytes (red box, right upper panel), and CD14^+HLA-DR^low/neg monocytes (blue box, right lower panel) in PBMCs of breast cancer patients. Initially gated on single viable CD45^+ cells. […] (D) HLA-DR expression on CD14^+ monocytes in vitro. […] Median fluorescence intensity, MFI.
# (§1) Blood samples were obtained on cycle 1 day 1 (C1D1; pre-treatment), C1D2, C1D8, and C1D15 for biomarker analyses. […] Cell populations were based on the following surface markers, in which “X−” means negative for marker X, “X+” means positive for marker X, “Xlow/−” means low levels to absence of marker X, and “Xhi” means high levels of expression of marker X:
# (§2) Monocytes were analyzed for three populations: (1) CD14+; (2) CD14+, HLA-DRhi; and (3) CD14+, HLA-DRlow/−. PD-1, CTLA-4, and TIM-3 were measured on CD8+ T-cells, CD4+ T-cells, and Tregs, and CD40 was measured on myeloid derived suppressor cells.
# (§3) The percent change in subsets at C1D15 vs. baseline was assessed based on the following surface markers: Lin-MDSC (lin;CD3,CD19,CD56)-HLA-DR-CD11b+CD33+), granulocytic MDSC (CD14−CD11b+CD33+), monocytic MDSC (Lin−HLA-DR−CD11b+CD33+CD14+), immature MDSC (Lin−HLA-DR−CD11b+CD33+CD14−), CD8+T-cells (CD4−CD8+), Foxp3−CD4+T-cells (CD8−CD4+Foxp3−), and Tregs (CD4+CD8−CD25hiFoxp3+). Monocytes were analyzed for three populations: CD14+, CD14+HLA-DRhi, and CD14+HLA-DR-low/negative. In addition, PD-1, CTLA-4, and TIM-3 were measured on T-cell subsets, and CD40 was measured on MDSCs.
# [2] = test system: myeloid derived suppressor cells in PBMCs of breast cancer patients; experiment: ENCORE 301 blood samples: flow cytometry of circulating MDSC subsets and CD40 on MDSCs, baseline vs C1D15; type: in vivo, human
# Description: (A) Gating strategy for analysis of MDSC phenotypes in PBMCs of breast cancer patients. Initial gating was on single viable CD45^+ cells. Lineage (CD3, CD19, CD56)^−HLA-DR^−CD11b^+CD33^+ cells were defined as Lin^−MDSCs. The Lin^−MDSCs were further divided into monocytic MDSCs (Lin^−HLA-DR^−CD11b^+CD33^+CD14^+ cells) and immature MDSCs (Lin^−HLA-DR^−CD11b^+CD33^+CD14^− cells). CD14^−CD11b^+CD33^+ cells were defined as granulocytic MDSCs. […]
# as §1
# Myeloid derived suppressor cell: CD3−, CD19−, CD56−, HLA-DR−, CD11b+, CD33+.
# PMN-MDSC: CD14−, CD11b+, CD33+.
# M-MDSC: CD3−, CD19−, CD56−, HLA-DR−, CD11b+, CD33+, CD14+.
# Immature MDSC: CD3−, CD19−, CD56−, HLA-DR−, CD11b+, CD33+, CD14−.
# as §2, §3
# [3] = test system: advanced hormone receptor positive breast cancer; experiment: ENCORE 301 randomized, placebo-controlled phase II trial: clinical outcome (PFS, OS); type: in vivo, human; details: the 34 patients analysed for immune subsets
# Description: Blood was collected from a subset of 49 patients (27 EE and 22 EP) representative of the 130 patients enrolled in ENCORE 301 on cycle 1 day 1 (C1D1; pretreatment), C1D2, C1D8, and C1D15 for biomarker analyses. Of these 49, C1D1 and C1D15 samples were available from 34 patients (20 EE and 14 EP) for further analysis of circulating immune subsets.
# [4] = test system: T-cell subsets in PBMCs of breast cancer patients; experiment: ENCORE 301 blood samples: T-cell subsets and immune checkpoint receptor expression; type: in vivo, human; details: ENCORE 301 patients, C1D15 vs baseline
# Description: FIG. 5 illustrates gating strategy for analysis of T-cell subsets in PBMCs of breast cancer patients. (A) Initial gating was on single viable cells. The CD4^+ T-cells were further divided into Tregs (CD8^−CD4^+CD25^hiFoxp3^+ cells) and Foxp3^−CD4^+ T-cells (CD8^−CD4^+Foxp3^− cells). (B) Immune checkpoint receptor expression was evaluated for CD8^+ T-cells, Foxp3^−CD4^+ T-cells, and Tregs. Representative histograms for PD-1 (left), CTLA-4 (middle), and TIM-3 (right) were shown.
# CD8+ T-cell: CD4−, CD8+, Foxp3−.
# CD4+ T-cell: CD8−, CD4+, Foxp3−.
# Tregs: CD4+, CD8−, CD25hi, Foxp3+.
# as §2, §3
# [5] = test system: monocytic MDSCs, granulocytic MDSCs and Lineage cells from healthy donor PBMCs; experiment: In vitro dead cell dye staining of PBMCs cultured with IL-6 and GM-CSF, then DMSO or entinostat; type: cell-based, human; details: entinostat 0.5 μM vs DMSO, two or three days, n=7
# Description: (C) Absolute viable cell counts of MDSCs (upper panel, monocytic MDSCs; lower panel, granulocytic MDSCs). Fresh PBMCs (2×10^6 PBMCs/well) were cultured with IL-6 (10 ng/ml) and GM-CSF (10 ng/ml). […] (D) Percentage of dead cell dye-positive cells in the monocytic MDSCs (red line), granulocytic MDSCs (blue line), and Lineage cells (black line). […] Percentage of dead cell dye-positive cells among each population (monocytic MDSCs, granulocytic MDSCs, and lineage cells) was calculated. Mean±SD is shown (n=7).
# [6] = in vivo; cited from earlier work
# [7] = test system: squamous or non-squamous NSCLC; details: cited from earlier work
# [8] = test system: advanced refractory malignancies; details: cited from earlier work
# melanoma = details: cited from earlier work
# [9] = C1D1 vs C1D15, statistic not stated
# [10] = breast cancer patients, EP n = 14, EE n = 20, mean
# [11] = breast cancer patients, EP n = 14, EE n = 20, median
compound,measurement,setting,value
C=C1C[C@@H]2[C@H](CC[C@]3(C)C(=O)CC[C@@H]23)[C@@]2(C)C=CC(=O)C=C12 [EP],"HLA-DR levels (expression) on monocytes, change",[1]; [9],−4.7%
same,change of (number of) HLA-DR+ monocytes,[1]; [9],−11.38%
same,"CD14+ change from baseline to C1D15, Mean (SD)",[1]; [10],−0.58 (22.73) %
same,"CD14+HLA-DR HI change from baseline to C1D15, Mean (SD)",[1]; [10],−8.63 (17.77) %
same,"CD14+HLA-DR LO/NEG change from baseline to C1D15, Mean (SD)",[1]; [10],13.45 (43.11) %
same,"HLA-DR expression on CD14+ change from baseline to C1D15, Mean (SD)",[1]; [10],−6.23 (18.77) %
same,"CD14+ change from baseline to C1D15, Median (Min, Max)",[1]; [11],1.90 %
same,"CD14+HLA-DR HI change from baseline to C1D15, Median (Min, Max)",[1]; [11],−11.38 %
same,"CD14+HLA-DR LO/NEG change from baseline to C1D15, Median (Min, Max)",[1]; [11],1.55 %
same,"HLA-DR expression on CD14+ change from baseline to C1D15, Median (Min, Max)",[1]; [11],−4.74 %
same,change of M-MDSCs (monocytic MDSC),[2]; [9],+1.97%
same,change of PMN-MDSCs (granulocytic MDSC),[2]; [9],+20.56%
same,change of immature MDSCs,[2]; [9],−15.0%
same,"CD40 on Lin-MDSCs change from baseline to C1D15, Mean (SD)",[2]; [10],14.85 (34.92) %
same,"CD40 on g-MDSCs change from baseline to C1D15, Mean (SD)",[2]; [10],16.52 (32.07) %
same,"CD40 on immature MDSCs change from baseline to C1D15, Mean (SD)",[2]; [10],18.64 (35.15) %
same,"CD40 on m-MDSCs change from baseline to C1D15, Mean (SD)",[2]; [10],3.37 (25.69) %
same,"Lin-MDSCs change from baseline to C1D15, Mean (SD)",[2]; [10],1.28 (83.31) %
same,"g-MDSCs change from baseline to C1D15, Mean (SD)",[2]; [10],20.56 (68.45) %
same,"immature MDSCs change from baseline to C1D15, Mean (SD)",[2]; [10],4.92 (94.50) %
same,"m-MDSCs change from baseline to C1D15, Mean (SD)",[2]; [10],28.24 (86.60) %
same,"CD40 on Lin-MDSCs change from baseline to C1D15, Median (Min, Max)",[2]; [11],3.37 %
same,"CD40 on g-MDSCs change from baseline to C1D15, Median (Min, Max)",[2]; [11],10.52 %
same,"CD40 on immature MDSCs change from baseline to C1D15, Median (Min, Max)",[2]; [11],9.00 %
same,"CD40 on m-MDSCs change from baseline to C1D15, Median (Min, Max)",[2]; [11],1.57 %
same,"Lin-MDSCs change from baseline to C1D15, Median (Min, Max)",[2]; [11],−22.11 %
same,"g-MDSCs change from baseline to C1D15, Median (Min, Max)",[2]; [11],3.82 %
same,"immature MDSCs change from baseline to C1D15, Median (Min, Max)",[2]; [11],−20.94 %
same,"m-MDSCs change from baseline to C1D15, Median (Min, Max)",[2]; [11],1.97 %
same,Overall Survival (OS),[3],20.3 months
same,Progression Free Survival (PFS),[3],1.8 months
"Nc1ccccc1NC(=O)c1ccc(CNC(=O)OCc2cccnc2)cc1 [Entinostat, N-(2-aminophenyl)-4-[N-(pyridine-3-yl)methoxycarbonylamino-methyl]-benzamide]","alteration of expression of CTLA-4, PD-1, or TIM-3 on T-cell subsets",[4],did not significantly
same,percentage of dead (dead cell dye-positive) granulocytic MDSCs,[5]; P=0.016,increased
same,percentage of dead (dead cell dye-positive) monocytic MDSCs,[5]; P=0.016,increased
same,"percentage of dead (dead cell dye-positive) lineage cells (CD3+, CD19+, or CD56+)",[5]; P=0.7,not increased
same,half-life,[6],about 100 hours
MPDL3280A: human anti-PD-L1 mAb with engineered Fc domain,24-week PFS rate,[7]; non-squamous cell NSCLC,46%
same,24-week PFS rate,[7]; squamous cell NSCLC,44%
Pembrolizumab: humanized monoclonal IgG4 anti-PD-1 antibody,maximum tolerated dose,"[8]; 1, 3 and 10 mg/kg intravenously",not reached
same,patients with some tumor regression,[8]; dose-escalation study,Four
same,half-life,[8]; in vivo,13.6 to 21.7 days
same,overall objective response rate (ORR),"melanoma; immune-related response criteria, 44 of 117",38%
same,patients with some AEs,melanoma; in vivo,79%
same,"rate of severe toxicities, less dose intense cohorts",melanoma; in vivo,< 10%
same,median progression free survival,melanoma; melanoma,exceeded 7 months
same,patients with some degree of tumor regression,melanoma; melanoma,77%
